Laboratory results published in paper PMC3539403, “Molecular Characterization of Lipopolysaccharide Binding to Human α-1-Acid Glycoprotein” (Journal of Lipids, 2012).
“Also recorded” adds a separate entry of the source. Read-outs that look alike come from different tables or passages of the source.

What was measured:
[1] = tested on: human AGP; test: SPR assay of AGP binding to lipid A/Kdo2-lipid A in DMPC hybrid SUV bilayer (L1 chip); details: 10% (mol/mol) lipid in DMPC bilayer; Kdo2-lipid A response at AGP concentrations higher than 7 μM
Procedure: In the case of lipid A and Kdo2-lipid A binding, a L1 sensor chip was used (GE Health Care, Melbourne Australia). Small unilamellar vesicles (SUVs) were prepared in PBS by sonication and extrusion. Lipids (DMPC, lipid A, and Kdo2-lipid A) were dissolved in ethanol-free chloroform in 25 mL round-bottom flasks. 10% (mol/mol) of lipid A or Kdo2-lipid A was added into DMPC solution to make 10% lipid A/Kdo2-lipid A-DMPC mixtures, which were then deposited as a thin film by removal of the solvent (chloroform) under reduced pressure on a rotary evaporator and dried under high vacuum for at least 2 hours. PBS was then added into each flask to give a 1 mM suspension, which was sonicated 5 min for 5 times. […] The SUVs were then injected into the flow cells of the L1 sensor chip for 2000 sec at a low flow rate of 2 μL/min to form a bilayer membrane model on the chip surface. Then, a series of AGP solutions was injected across the flow cells at a flow rate of 30 μL/min, having an injection phase of 180 s and a dissociation phase of 300 s. A regeneration step was added before and after every cycle using 40 mM octyl-glucoside, which cleans the chip surface for a new cycle. Pure DMPC bilayer was applied as a reference and all data used in analysis were reference-subtracted.

[2] = tested on: human AGP; test: Fluorometric assay of FITC-E. coli O111:B4 LPS binding to AGP; details: chlorpromazine 20 μM final concentration; FITC-LPS 5 μM, AGP 25 μM
Procedure: […] Fluorescence was measured using a Cary Eclipse Fluorescence spectrophotometer (Varian, Mulgrave, VIC, Australia) set at an excitation wavelength specific for the FITC fluorophore (Exλ 494 nm). Slit widths were set to 5 nm for both the excitation and emission monochromators. The emission spectrum was collected in the 500→650 nm range.

[3] = tested on: K. pneumoniae; set-up: method as in PMID 10809735; details: intraperitoneal, 10 mg, 2 h prior to lethal challenge of K. pneumoniae; cited from earlier work
[4] = LPS binding affinity of plasma binding proteins; details: AGP, this study's SPR data
[5] = tested on: HEK293 cells; test: Cytotoxicity of LPS to HEK293 cells (Alamar Blue cell viability), with or without AGP; format: cell-based; details: LPS 100 μg/mL, AGP 0-1 mg/mL
Procedure: HEK293 cell line was purchased from American Type Culture Collection (ATCC). The cells were cultured in DMEM (Invitrogen, Australia) containing 10% fetal bovine serum at 37°C, 5% CO2. Serum-free media were used in cytotoxicity assays. Cytotoxicity of LPS to HEK293 cells was determined using Alamar Blue cell viability reagent (Invitrogen, Australia). In brief, HEK293 cells were seeded as 2 × 10^4 cells per well in a clear 96-well plate and incubated for 24 hr at 37°C, 5% CO2. Then the media were replaced with serum-free media, which contained AGP and LPS (100 μg/mL). After a 24 hr incubation, 10 μL of Alamar Blue reagent were added per well and incubated at 37°C for 1 hr. Then the fluorescence intensity was read using Polar star Omega with excitation/emission wavelengths of 560/590.

[6] = set-up: method as in PMID 12887306, PMID 11739189; details: cited from earlier work
[7] = tested on: meningococcal endotoxemia mouse model; set-up: method as in PMID 9179623; details: intraperitoneal, 8 mg, 2 h prior to LPS challenge; cited from earlier work

Q: For `CCCCCCCCCCCCCC(=O)O[C@H](CCCCCCCCCCC)CC(=O)O[C@@H]1[C@@H](NC(=O)C[C@@H](CCCCCCCCCCC)OC(=O)CCCCCCCCCCC)[C@H](OC[C@H]2O[C@H](OP(=O)(O)O)[C@H](NC(=O)C[C@H](O)CCCCCCCCCCC)[C@@H](OC(=O)C[C@H](O)CCCCCCCCCCC)[C@@H]2O)O[C@H](CO[C@]2(C(=O)O)C[C@@H](O[C@]3(C(=O)O)C[C@@H](O)[C@@H](O)[C@@H]([C@H](O)CO)O3)[C@@H](O)[C@@H]([C@H](O)CO)O2)[C@H]1OP(=O)(O)O` [Kdo2-lipid A], which “specific AGP binding to lipid in hybrid SUVs” value [1] is on record?
A: dose-dependent response; also recorded: very weak

Q: With `CN(C)CCCN1c2ccccc2Sc2ccc(Cl)cc21` [chlorpromazine] as the molecule, how does the “change in fluorescence emission of the FITC-LPS:AGP complex” value [2] read?
A: decrease in fluorescence emission

Q: With “AGP: human α-1-acid glycoprotein from plasma, F1:S:A variants 40:30:30” as the molecule, how does the survival of mice [3] read?
A: increased the survival of mice

Q: What about the LPS binding affinity [4] of the same molecule?
A: high micromolar

Q: What about the “effect of AGP on the cytotoxic effect of LPS” value [5] of the same molecule?
A: ameliorated in a concentration-dependent manner

Q: For diphosphoryl lipid A, which “specific AGP binding to lipid in hybrid SUVs” value [1] is on record?
A: no specific AGP binding detected

B1: LBP: lipopolysaccharide-binding protein, LPS-specific plasma binding protein (protein, UniProt P18428 26-481, looked up)
Lipopolysaccharide-binding …: ANPGLVARITDKGLQYAAQEGLLALQSELLRITLPDFTGDLRIPHVGRGRYEFHSLNIHSCELLHSALRPVPGQGLSLSISDSSIRVQGRWKVRKSFFKLQGSFDVSVKGISISVNLLLGSESSGRPTVTASSCSSDIADVEVDMSGDLGWLLNLFHNQIESKFQKVLESRICEMIQKSVSSDLQPYLQTLPVTTEIDSFADIDYSLVEAPRATAQMLEVMFKGEIFHRNHRSPVTLLAAVMSLPEEHNKMVYFAISDYVFNTASLVYHEEGYLNFSITDDMIPPDSNIRLTTKSFRPFVPRLARLYPNMNLELQGSVPSAPLLNFSPGNLSVDPYMEIDAFVLLPSSSKEPVFRLSVATNVSATLTFNTSKITGFLKPGKVKVELKESKVGLFNAELLEALLNYYILNTFYPKFNDKLAEGFPLPLLKRVQLYDLGLQIHKDFLFLGANVQYMRV
Q: For B1, which LPS binding affinity [6] is on record?
A: nanomolar

B2: BPI: bactericidal/permeability-increasing protein (protein, UniProt P17213 32-487, looked up)
Bactericidal …: VNPGVVVRISQKGLDYASQQGTAALQKELKRIKIPDYSDSFKIKHLGKGHYSFYSMDIREFQLPSSQISMVPNVGLKFSISNANIKISGKWKAQKRFLKMSGNFDLSIEGMSISADLKLGSNPTSGKPTITCSSCSSHINSVHVHISKSKVGWLIQLFHKKIESALRNKMNSQVCEKVTNSVSSELQPYFQTLPVMTKIDSVAGINYGLVAPPATTAETLDVQMKGEFYSENHHNPPPFAPPVMEFPAAHDRMVYLGLSDYFFNTAGLVYQEAGVLKMTLRDDMIPKESKFRLTTKFFGTFLPEVAKKFPNMKIQIHVSASTPPHLSVQPTGLTFYPAVDVQAFAVLPNSSLASLFLIGMHTTGSMEVSAESNRLVGELKLDRLLLELKHSNIGPFPVELLQDIMNYIVPILVLPRVNEKLQKGFPLPTPARVQLYNVVLQPHQNFLLFGADVVYK
Q: For B2, which LPS binding affinity [6] is on record?
A: nanomolar

B3: bovine AGP: bovine α-1-acid glycoprotein (protein, UniProt Q3SZR3 19-202, looked up)
Alpha-1-acid glycoprotein: QSPECANLMTVAPITNATMDLLSGKWFYIGSAFRNPEYNKSARAIQAAFFYLEPRHAEDKLITREYQTIEDKCVYNCSFIKIYRQNGTLSKVESDREHFVDLLLSKHFRTFMLAASWNGTKNVGVSFYADKPEVTQEQKKEFLDVIKCIGIQESEIIYTDEKKDACGPLEKQHEEERKKETEAS
Q: With B3 as the molecule, how does the protection against sepsis [7] read?
A: protect against sepsis
